Patent US10800770B1, “Chroman derivatives having estrogen receptor degradation activity and uses thereof” (ACCUTAR BIOTECHNOLOGY INC., priority 2019, dated 2020)

Each compound was assayed against T1, ERα (Homo sapiens, UniProt P03372) (assay: ERα degradative activity in T47D cells (Western blot, 6 hours after administration)). Details: T47D cell line, ERα degradation.
T1 construct: endogenous in cells; host or cells: T47D
T1 sequence (P03372 1-595): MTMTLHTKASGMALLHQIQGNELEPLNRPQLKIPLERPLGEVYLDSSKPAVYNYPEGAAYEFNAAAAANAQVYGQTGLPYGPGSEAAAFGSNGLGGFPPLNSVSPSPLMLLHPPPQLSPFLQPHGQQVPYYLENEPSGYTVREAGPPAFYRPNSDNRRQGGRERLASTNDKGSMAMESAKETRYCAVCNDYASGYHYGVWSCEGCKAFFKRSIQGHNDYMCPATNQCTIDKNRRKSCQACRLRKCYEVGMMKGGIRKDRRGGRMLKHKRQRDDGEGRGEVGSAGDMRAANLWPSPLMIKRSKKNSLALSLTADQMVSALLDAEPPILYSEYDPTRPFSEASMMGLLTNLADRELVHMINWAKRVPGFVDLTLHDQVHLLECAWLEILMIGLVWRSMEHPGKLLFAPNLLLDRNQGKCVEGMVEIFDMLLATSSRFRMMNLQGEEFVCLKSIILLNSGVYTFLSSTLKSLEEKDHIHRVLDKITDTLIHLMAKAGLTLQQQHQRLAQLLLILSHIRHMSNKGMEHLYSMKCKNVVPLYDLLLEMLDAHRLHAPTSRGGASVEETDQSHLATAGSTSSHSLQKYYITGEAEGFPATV
Format: cell-based
Procedure: T47D cells were plated in 24-well plates at 1.5×10^5 cells/well in the RPMI growth medium containing 10% FBS and 1× Penicillin Streptomycin. MCF7 cells were plated in 24-well plates at 1.5×10^5 cells/well in the DMEM growth medium containing 10% FBS and 1× Penicillin Streptomycin. CAMA1 cells were plated in 24-well plates at 2×10^5 cells/well in the RPMI growth medium containing 20% FBS and 1× Penicillin Streptomycin. They were then incubated at 37° C. overnight. The following day, the test compound was administered to the cells by using 1000× compound stock solution prepared in DMSO at various concentrations. After administration of the compound, the cells were then incubated at 37° C. for 6 hours.
Upon completion, the cells were washed with PBS and protein was collected in Laemmli sample buffer (1×; VWR International). Proteins in cell lysate were separated by SDS-PAGE and transferred to Odyssey nitrocellulose membranes (Licor) with Iblot® dry blotting transfer system (ThermoFisher). Nonspecific binding was blocked by incubating membranes with Intercept Blocking Buffer (Licor) for 1 hour at room temperature with gentle shaking. The membranes were then incubated overnight at 4° C. with Primary antibodies rabbit anti-ER (Cell Signaling, 8644) and mouse anti-GAPDH (1:5,000, Santa Cruz Biotechnology, sc-47724) diluted in Intercept Blocking Buffer containing 0.1% Tween 20. After washing 3 times with TBS-T, the membranes were incubated with IRDye® 800CW goat anti-mouse IgG (1:20,000, Licor) or IRDye® 800CW goat anti-rabbit IgG (1:20,000, Licor) for 1 hour. After TBS-T washes, membranes were rinsed in TBS and scanned on Odyssey® CLx Imaging System (Licor). The bands were quantified using Image Studio™ Software (Licor).

Question: For O=C1CC[C@H](N2Cc3cc(N4CCN(CC5CCN(c6ccc(C7c8ccc(O)cc8OC[C@@H]7c7ccccc7)cc6)CC5)CC4)ccc3C2=O)C(=O)N1 (relative stereo) [Compound 32, cis-(S)-3-(5-(4-((1-(4-(7-hydroxy-3-phenylchroman-4-yl)phenyl)piperidin-4-yl)methyl)piperazin-1-yl)-1-oxoisoindolin-2-yl)piperidine-2,6-dione], which DC50 is on record?
Answer: 2.4 nM

Question: With Cc1cccc([C@H]2COc3cc(O)ccc3C2c2ccc(N3CCC(CN4CCN(c5ccc6c(c5)CN([C@H]5CCC(=O)NC5=O)C6=O)CC4)CC3)c(F)c2)c1 (relative stereo) [Compound 52, cis-(S)-3-(5-(4-((1-(2-fluoro-4-(7-hydroxy-3-(m-tolyl)chroman-4-yl)phenyl)piperidin-4-yl)methyl)piperazin-1-yl)-1-oxoisoindolin-2-yl)piperidine-2,6-dione] as the compound, how does the DC50 read?
Answer: 5.6 nM

Question: Which DC50 does the source give for COc1cccc([C@H]2COc3cc(O)ccc3C2c2ccc(N3CCC(CN4CCN(c5ccc6c(c5)CN([C@H]5CCC(=O)NC5=O)C6=O)CC4)CC3)cc2)c1 (relative stereo) [Compound 56, cis-(S)-3-(5-(4-((1-(4-(7-hydroxy-3-(3-methoxy-phenyl)chroman-4-yl)phenyl)piperidin-4-yl)methyl)piperazin-1-yl)-1-oxoisoindolin-2-yl)piperidine-2,6-dione] here?
Answer: 1.7 nM

Question: How did the DC50 turn out when COc1cc([C@H]2COc3cc(O)ccc3[C@H]2c2ccc(N3CCC(CN4CCN(c5ccc6c(c5)CN([C@H]5CCC(=O)NC5=O)C6=O)CC4)CC3)cc2)ccc1F (relative stereo) [Compound 63, cis-(S)-3-(5-(4-((1-(4-(3-(4-fluoro-3-methoxyphenyl)-7-hydroxychroman-4-yl)phenyl)piperidin-4-yl)methyl)piperazin-1-yl)-1-oxoisoindolin-2-yl)piperidine-2,6-dione] was run?
Answer: 2.1 nM

Question: Which DC50 does the source give for COc1cccc([C@H]2COc3cc(O)ccc3[C@H]2c2ccc(N3CCC(CN4CCN(c5cc6c(cc5F)C(=O)N([C@H]5CCC(=O)NC5=O)C6)CC4)CC3)cc2)c1 (relative stereo) [Compound 74, cis-(S)-3-(6-fluoro-5-(4-((1-(4-(7-hydroxy-3-(3-methoxy-phenyl)chroman-4-yl)phenyl)piperidin-4-yl)methyl)piperazin-1-yl)-1-oxoisoindolin-2-yl)piperidine-2,6-dione] here?
Answer: 7.3 nM

Question: With O=C1CC[C@H](N2Cc3cc(N4CCN(CC5CCN(c6ccc([C@@H]7c8ccc(O)cc8OCC7c7ccc(F)c(F)c7)cc6F)CC5)CC4)ccc3C2=O)C(=O)N1 (relative stereo) [Compound 84, cis-(S)-3-(5-(4-((1-(4-(3-(3,4-difluorophenyl)-7-hydroxychroman-4-yl)-2-fluoro-phenyl)piperidin-4-yl)methyl)piperazin-1-yl)-1-oxoisoindolin-2-yl)piperidine-2,6-dione] as the compound, how does the DC50 read?
Answer: 9.3 nM

Question: How did the DC50 turn out when O=C1CC[C@H](N2Cc3cc(N4CCN(CC5CCN(c6ccc([C@@H]7c8ccc(O)cc8OCC7c7ccccc7)cc6F)CC5)CC4)ccc3C2=O)C(=O)N1 (relative stereo) [Compound 85, cis-(S)-3-(5-(4-((1-(2-fluoro-4-(7-hydroxy-3-phenylchroman-4-yl)phenyl)piperidin-4-yl)methyl)piperazin-1-yl)-1-oxoisoindolin-2-yl)piperidine-2,6-dione] was run?
Answer: 3 nM

Question: For COc1ccc(C2COc3cc(O)ccc3[C@H]2c2ccc(N3CCC(CN4CCN(c5ccc6c(c5)CN([C@H]5CCC(=O)NC5=O)C6=O)CC4)CC3)cc2)cc1 (relative stereo) [Compound 89, cis-(S)-3-(5-(4-((1-(4-(7-hydroxy-3-(4-methoxy-phenyl)chroman-4-yl)phenyl)piperidin-4-yl)methyl)piperazin-1-yl)-1-oxoisoindolin-2-yl)piperidine-2,6-dione], which DC50 is on record?
Answer: 0.7 nM

Question: COc1ccc(C2COc3cc(O)ccc3[C@H]2c2ccc(N3CCC(CN4CCN(c5cc6c(cc5F)C(=O)N([C@H]5CCC(=O)NC5=O)C6)CC4)CC3)cc2)cc1 (relative stereo) [Compound 90, cis-(S)-3-(6-fluoro-5-(4-((1-(4-(7-hydroxy-3-(4-methoxy-phenyl)chroman-4-yl)phenyl)piperidin-4-yl)methyl)piperazin-1-yl)-1-oxoisoindolin-2-yl)piperidine-2,6-dione] was tested. Which DC50 did it give?
Answer: 9.6 nM

Question: How did the DC50 turn out when O=C1CCC(N2C(=O)c3ccc(N4CCN(CC5CCN(c6ccc(C7c8ccc(O)cc8OC[C@@H]7c7ccccc7)cc6)CC5)CC4)cc3C2=O)C(=O)N1 (stereo in doubt) [Compound 36, cis-2-(2,6-dioxopiperidin-3-yl)-5-(4-((1-(4-(7-hydroxy-3-phenylchroman-4-yl)phenyl)piperidin-4-yl)methyl)piperazin-1-yl)isoindoline-1,3-dione] was run?
Answer: > 10 nM

Question: How did the DC50 turn out when O=C1CC[C@H](N2C(=O)c3ccc(N4CCN(CC5CCN(c6ccc([C@@H]7c8ccc(O)cc8OCC7c7ccccc7)cc6F)CC5)CC4)cc3C2=O)C(=O)N1 (stereo in doubt) [Compound 87, cis-2-(2,6-dioxo-piperidin-3-yl)-5-(4-((1-(2-fluoro-4-(7-hydroxy-3-phenylchroman-4-yl)phenyl)piperidin-4-yl)methyl)piperazin-1-yl)isoindoline-1,3-dione] was run?
Answer: 12.6 nM

Question: For O=C1CC[C@H](N2Cc3cc(N4CCN(CC5CCN(c6ccc([C@@H]7c8ccc(O)cc8OC[C@@H]7c7ccccc7)cc6)CC5)CC4)ccc3C2=O)C(=O)N1 [Compound 33, (S)-3-(5-(4-((1-(4-((3S,4R)-7-hydroxy-3-phenylchroman-4-yl)phenyl)piperidin-4-yl)methyl)piperazin-1-yl)-1-oxoisoindolin-2-yl)piperidine-2,6-dione], which DC50 is on record?
Answer: 0.3 nM

Question: O=C1CC[C@H](N2Cc3cc(N4CCN(CC5CCN(c6ccc([C@H]7c8ccc(O)cc8OC[C@H]7c7ccccc7)cc6)CC5)CC4)ccc3C2=O)C(=O)N1 [Compound 34, (S)-3-(5-(4-((1-(4-((3R,4S)-7-hydroxy-3-phenylchroman-4-yl)phenyl)piperidin-4-yl)methyl)piperazin-1-yl)-1-oxoisoindolin-2-yl)piperidine-2,6-dione] was tested. Which DC50 did it give?
Answer: > 100 nM

Question: Which DC50 does the source give for O=C1CC[C@H](N2Cc3cc(N4CCN(CC5CCN(c6ccc([C@@H]7c8ccc(O)cc8OC[C@@H]7c7ccccc7)cc6F)CC5)CC4)c(F)cc3C2=O)C(=O)N1 [Compound 41, (S)-3-(6-fluoro-5-(4-((1-(2-fluoro-4-((3S,4R)-7-hydroxy-3-phenylchroman-4-yl)phenyl)piperidin-4-yl)methyl)piperazin-1-yl)-1-oxoisoindolin-2-yl)piperidine-2,6-dione] here?
Answer: 4 nM

Question: How did the DC50 turn out when O=C1CC[C@H](N2Cc3cc(N4CCN(CC5CCN(c6ccc([C@@H]7c8ccc(O)cc8OC[C@@H]7c7ccccc7)cc6)CC5)CC4)c(F)cc3C2=O)C(=O)N1 [Compound 42, (S)-3-(6-fluoro-5-(4-((1-(4-((3S,4R)-7-hydroxy-3-phenylchroman-4-yl)phenyl)piperidin-4-yl)methyl)piperazin-1-yl)-1-oxoisoindolin-2-yl)piperidine-2,6-dione] was run?
Answer: 1.1 nM

Question: O=C1CC[C@H](N2Cc3cc(N4CCN(CC5CCN(c6ccc([C@H]7c8ccc(O)cc8OC[C@H]7c7ccccc7)cc6F)CC5)CC4)ccc3C2=O)C(=O)N1 [Compound 45, (S)-3-(5-(4-((1-(2-fluoro-4-((3R,4S)-7-hydroxy-3-phenylchroman-4-yl)phenyl)piperidin-4-yl)methyl)piperazin-1-yl)-1-oxoisoindolin-2-yl)piperidine-2,6-dione] was tested. Which DC50 did it give?
Answer: > 100 nM

Question: How did the DC50 turn out when Cc1cc([C@H]2COc3cc(O)ccc3[C@H]2c2ccc(N3CCC(CN4CCN(c5ccc6c(c5)CN([C@H]5CCC(=O)NC5=O)C6=O)CC4)CC3)c(F)c2)ccc1F [Compound 60, cis-(S)-3-(5-(4-((1-(2-fluoro-4-(3-(4-fluoro-3-methylphenyl)-7-hydroxychroman-4-yl)phenyl)piperidin-4-yl)methyl)piperazin-1-yl)-1-oxoisoindolin-2-yl)piperidine-2,6-dione] was run?
Answer: 6.5 nM

Question: For O=C1CC[C@H](N2Cc3cc(N4CCN(CC5CCN(c6ccc([C@@H]7c8ccc(O)cc8OC[C@@H]7c7ccccc7)cc6F)CC5)CC4)ccc3C2=O)C(=O)N1 [Compound 86, (S)-3-(5-(4-((1-(2-fluoro-4-((3S,4R)-7-hydroxy-3-phenylchroman-4-yl)phenyl)piperidin-4-yl)methyl)piperazin-1-yl)-1-oxoisoindolin-2-yl)piperidine-2,6-dione], which DC50 is on record?
Answer: 0.5 nM
